These results are taken from patent publication US20040002445A1, “Enhancement of endogenous gonadotropin production” (priority 2002, published 2004).

One assay has as its system serum LH. As to conditions: two stimulations with 25 mcg each on 3 consecutive days, 12 normally menstruating females; cited from earlier work.
The subject of a further assay is plasma LH and FSH. The note with it: intermittent, but not continuous, administration; cited from earlier work.
Another assay deals with plasma testosterone. Put plainly: Phase 1 study of oral leuprolide acetate for 28 days, hormonal response (plasma testosterone). It counts as in vivo, human. As to conditions: for Testosterone levels: healthy males. From the text:
Twenty subjects were assigned to each dosing group.

Take “gonadotropin releasing hormone (QHWSYGLRPG; Gonadoliberin-1; UniProt P01148 24-33, looked up) [GnRH, hormone that is secreted by the hypothalamus in a pulsating fashion, also known as LH-RH]”: in the assay with serum LH, the “Serum LH levels” value is “Increases in serum LH levels”. Also, the “Plasma LH and FSH levels” value with plasma LH and FSH is “increases in plasma LH and FSH levels”.

For `CCNC(=O)[C@@H]1CCCN1C(=O)[C@H](CCCNC(=N)N)NC(=O)[C@H](CC(C)C)NC(=O)[C@@H](CC(C)C)NC(=O)[C@H](Cc1ccc(O)cc1)NC(=O)[C@H](CO)NC(=O)[C@H](Cc1c[nH]c2ccccc12)NC(=O)[C@H](Cc1c[nH]cn1)NC(=O)[C@@H]1CCC(=O)N1` [leuprolide acetate], the “Testosterone levels relative to baseline” value in the assay with plasma testosterone (Group A, 5 mg q.d. oral) is “failed to raise the levels of testosterone above the baseline”; in the assay with plasma testosterone (Group B, 5 mg b.i.d. oral), “higher than the baseline until Day 7”; in the assay on plasma testosterone (Group C, 10 mg q.d. oral) it was “higher than the baseline until Day 6”. For the same molecule, the Testosterone levels in the assay on plasma testosterone (Group A, 5 mg q.d. oral, Day 2, baseline 453.25) came out at 452.45 ng/dL; with plasma testosterone (Group A, 5 mg q.d. oral, Day 3, baseline 453.25) it was 406.25 ng/dL; in the assay on plasma testosterone (Group A, 5 mg q.d. oral, Day 4, baseline 453.25) it was 384.70 ng/dL; with plasma testosterone (Group A, 5 mg q.d. oral, Day 5, baseline 453.25) it was 430.55 ng/dL; in the assay with plasma testosterone (Group A, 5 mg q.d. oral, Day 6, baseline 453.25), 434.55 ng/dL; with plasma testosterone (Group A, 5 mg q.d. oral, Day 7, baseline 453.25) it was 413.75 ng/dL. Further, the Testosterone levels is given as 405.85 ng/dL in the assay on plasma testosterone (Group A, 5 mg q.d. oral, Day 8, baseline 453.25); 358.8 ng/dL in the assay on plasma testosterone (Group A, 5 mg q.d. oral, Day 9, baseline 453.25); 369.80 ng/dL with plasma testosterone (Group A, 5 mg q.d. oral, Day 10, baseline 453.25); 563.5 ng/dL in the assay on plasma testosterone (Group B, 5 mg b.i.d. oral, Day 2, baseline 485.00); 541.35 ng/dL with plasma testosterone (Group B, 5 mg b.i.d. oral, Day 3, baseline 485.00); 527.40 ng/dL in the assay on plasma testosterone (Group B, 5 mg b.i.d. oral, Day 4, baseline 485.00). The Testosterone levels in the assay on plasma testosterone (Group B, 5 mg b.i.d. oral, Day 5, baseline 485.00) is recorded as 502.85 ng/dL; with plasma testosterone (Group B, 5 mg b.i.d. oral, Day 6, baseline 485.00), 493.25 ng/dL; in the assay with plasma testosterone (Group B, 5 mg b.i.d. oral, Day 7, baseline 485.00), 484.75 ng/dL; in the assay on plasma testosterone (Group B, 5 mg b.i.d. oral, Day 8, baseline 485.00), 449.10 ng/dL; in the assay with plasma testosterone (Group B, 5 mg b.i.d. oral, Day 9, baseline 485.00) it was 427.65 ng/dL; with plasma testosterone (Group B, 5 mg b.i.d. oral, Day 10, baseline 485.00), 428.95 ng/dL. Moreover, the Testosterone levels is on record as 495.85 ng/dL in the assay on plasma testosterone (Group C, 10 mg q.d. oral, Day 2, baseline 458.85); 501.00 ng/dL in the assay with plasma testosterone (Group C, 10 mg q.d. oral, Day 3, baseline 458.85); 492.20 ng/dL with plasma testosterone (Group C, 10 mg q.d. oral, Day 4, baseline 458.85); 463.90 ng/dL in the assay with plasma testosterone (Group C, 10 mg q.d. oral, Day 5, baseline 458.85); 412.65 ng/dL with plasma testosterone (Group C, 10 mg q.d. oral, Day 6, baseline 458.85); 435.50 ng/dL in the assay on plasma testosterone (Group C, 10 mg q.d. oral, Day 7, baseline 458.85). Moreover, the Testosterone levels with plasma testosterone (Group C, 10 mg q.d. oral, Day 8, baseline 458.85) is reported as 409.00 ng/dL; with plasma testosterone (Group C, 10 mg q.d. oral, Day 9, baseline 458.85), 428.05 ng/dL; in the assay on plasma testosterone (Group C, 10 mg q.d. oral, Day 10, baseline 458.85) it was 405.95 ng/dL. For the same molecule, in the assay on plasma testosterone (Group B, 5 mg b.i.d., compared with Group C, 10 mg q.d.), the “Elevation of plasma testosterone, comparison of dose groups” value was “more significant elevation of plasma testosterone”.
